Results reported in ChEMBL document CHEMBL3885861, “Open TG-GATES”.

Species on record: Rattus norvegicus
Test: Open TG-GATES - Regimen: Daily Repeat
Format: toxicity, organism-based, Sprague-Dawley
Set-up: regimen Daily Repeat, gender Male, age 6 weeks
Conditions: in vivo, po, 20 mg/kg, route gavage, dose level Low; for APTT / Bas / Eos / Fbg / Hb / Ht / Lym / MCH / MCHC / MCV / Mono / Neu / PT / Plat / RBC / Ret / WBC: tissue Blood; for KIDNEY_L / KIDNEY_R / KIDNEY_TOTAL: tissue Kidney; for LIVER: tissue Liver; for A/G / ALP / ALT / AST / BUN / CRE / Ca / Cl / DBIL / GLC / IP / K / LDH / Na / PL / RALB / TBIL / TC / TG / TP / gamma-GTP: tissue Plasma

Structure (SMILES): CCc1oc2ccccc2c1C(=O)c1cc(Br)c(O)c(Br)c1 [BENZBROMARONE]
- TERMINAL_BW (72 h, time 3 day): 239.2 g
- APTT (72 h, time 3 day): 16.2 s
- Bas (72 h, time 3 day): 0%
- Eos (72 h, time 3 day): 1%
- Fbg (72 h, time 3 day): 233.6 mg/dL
- Hb (72 h, time 3 day): 13.8 g/dL
- Ht (72 h, time 3 day): 41%
- Lym (72 h, time 3 day): 78.8%
- MCH (72 h, time 3 day): 22.4 pg
- MCHC (72 h, time 3 day): 33.7%
- MCV (72 h, time 3 day): 66.3 fL
- Mono (72 h, time 3 day): 7%
- Neu (72 h, time 3 day): 13.2%
- PT (72 h, time 3 day): 11.8 s
- Plat (72 h, time 3 day): 112.4 x10_4/uL
- RBC (72 h, time 3 day): 619.6 x10_4/ul
- Ret (72 h, time 3 day): 7.4%
- WBC (72 h, time 3 day): 116.5 x10_2/uL
- KIDNEY_L (72 h, time 3 day): 1.1 g
- KIDNEY_R (72 h, time 3 day): 1.1 g
- KIDNEY_TOTAL (72 h, time 3 day): 2.2 g
- LIVER (72 h, time 3 day): 12.8 g
- A/G (72 h, time 3 day): 2.1
- ALP (72 h, time 3 day): 818.8 IU/L
- ALT (72 h, time 3 day): 31.2 IU/L
- AST (72 h, time 3 day): 59.8 IU/L
- BUN (72 h, time 3 day): 18.6 mg/dL
- CRE (72 h, time 3 day): 0.6 mg/dL
- Ca (72 h, time 3 day): 10.4 mg/dL
- Cl (72 h, time 3 day): 105 meq/L
- DBIL (72 h, time 3 day): 0.008 mg/dL
- GLC (72 h, time 3 day): 189.2 mg/dL
- IP (72 h, time 3 day): 7.7 mg/dL
- K (72 h, time 3 day): 4.9 meq/L
- LDH (72 h, time 3 day): 90.2 IU/L
- Na (72 h, time 3 day): 139.5 meq/L
- PL (72 h, time 3 day): 158.8 mg/dL
- RALB (72 h, time 3 day): 4 g/dL
- TBIL (72 h, time 3 day): 0.3 mg/dL
- TC (72 h, time 3 day): 84.2 mg/dL
- TG (72 h, time 3 day): 114.2 mg/dL
- TP (72 h, time 3 day): 6 g/dL
- gamma-GTP (72 h, time 3 day): 0.8 IU/L
- TERMINAL_BW ([…], time 7 day): 269 g
- TERMINAL_BW ([…], time 14 day): 309.9 g
- TERMINAL_BW ([…], time 28 day): 378.9 g
- APTT ([…], time 7 day): 16.8 s
- Bas ([…], time 7 day): 0%
- Eos ([…], time 7 day): 1%
- Fbg ([…], time 7 day): 244.4 mg/dL
- Hb ([…], time 7 day): 14.2 g/dL
- Ht ([…], time 7 day): 42%
- Lym ([…], time 7 day): 79.8%
- MCH ([…], time 7 day): 21.2 pg
- MCHC ([…], time 7 day): 33.9%
- MCV ([…], time 7 day): 62.6 fL
- Mono ([…], time 7 day): 5.8%
- Neu ([…], time 7 day): 13.4%
- PT ([…], time 7 day): 11.9 s
- Plat ([…], time 7 day): 113.1 x10_4/uL
- RBC ([…], time 7 day): 670.8 x10_4/ul
- Ret ([…], time 7 day): 5.9%
- WBC ([…], time 7 day): 102 x10_2/uL
- APTT ([…], time 14 day): 16.5 s
- Bas ([…], time 14 day): 0%
- Eos ([…], time 14 day): 1%
- Fbg ([…], time 14 day): 228.8 mg/dL
- Hb ([…], time 14 day): 14.4 g/dL
- Ht ([…], time 14 day): 43.4%
- Lym ([…], time 14 day): 81.4%
- MCH ([…], time 14 day): 20.8 pg
- MCHC ([…], time 14 day): 33.3%
- MCV ([…], time 14 day): 62.5 fL
- Mono ([…], time 14 day): 6.2%
- Neu ([…], time 14 day): 11.2%
- PT ([…], time 14 day): 11.7 s
- Plat ([…], time 14 day): 104.8 x10_4/uL
- RBC ([…], time 14 day): 694.6 x10_4/ul
- Ret ([…], time 14 day): 4.4%
- WBC ([…], time 14 day): 128.4 x10_2/uL
- APTT ([…], time 28 day): 16.9 s
- Bas ([…], time 28 day): 0%
- Eos ([…], time 28 day): 1.4%
- Fbg ([…], time 28 day): 223.4 mg/dL
- Hb ([…], time 28 day): 15.4 g/dL
- Ht ([…], time 28 day): 45.8%
- Lym ([…], time 28 day): 85.4%
- MCH ([…], time 28 day): 19.3 pg
- MCHC ([…], time 28 day): 33.6%
- MCV ([…], time 28 day): 57.6 fL
- Mono ([…], time 28 day): 4.6%
- Neu ([…], time 28 day): 8.6%
- PT ([…], time 28 day): 12.1 s
- Plat ([…], time 28 day): 101.2 x10_4/uL
- RBC ([…], time 28 day): 795.8 x10_4/ul
- Ret ([…], time 28 day): 2.8%
- WBC ([…], time 28 day): 139.2 x10_2/uL
- KIDNEY_L ([…], time 7 day): 1.2 g
- KIDNEY_R ([…], time 7 day): 1.2 g
- KIDNEY_TOTAL ([…], time 7 day): 2.4 g
- KIDNEY_L ([…], time 14 day): 1.2 g
- KIDNEY_R ([…], time 14 day): 1.3 g
- KIDNEY_TOTAL ([…], time 14 day): 2.5 g
- KIDNEY_L ([…], time 28 day): 1.5 g
- KIDNEY_R ([…], time 28 day): 1.5 g
- KIDNEY_TOTAL ([…], time 28 day): 2.9 g
- LIVER ([…], time 7 day): 14.3 g
- LIVER ([…], time 14 day): 15.3 g
- LIVER ([…], time 28 day): 17.3 g
- A/G ([…], time 7 day): 1.9
- ALP ([…], time 7 day): 819.4 IU/L
- ALT ([…], time 7 day): 34.6 IU/L
- AST ([…], time 7 day): 61.8 IU/L
- BUN ([…], time 7 day): 20 mg/dL
- CRE ([…], time 7 day): 0.6 mg/dL
- Ca ([…], time 7 day): 10.4 mg/dL
- Cl ([…], time 7 day): 107.9 meq/L
- DBIL ([…], time 7 day): 0.008 mg/dL
- GLC ([…], time 7 day): 187.8 mg/dL
- IP ([…], time 7 day): 7.9 mg/dL
- K ([…], time 7 day): 4.9 meq/L
- LDH ([…], time 7 day): 92 IU/L
- Na ([…], time 7 day): 138.5 meq/L
- PL ([…], time 7 day): 163.8 mg/dL
- RALB ([…], time 7 day): 4 g/dL
- TBIL ([…], time 7 day): 0.3 mg/dL
- TC ([…], time 7 day): 82 mg/dL
- TG ([…], time 7 day): 139.6 mg/dL
- TP ([…], time 7 day): 6.2 g/dL
- gamma-GTP ([…], time 7 day): 1 IU/L
- A/G ([…], time 14 day): 1.8
- ALP ([…], time 14 day): 708.6 IU/L
- ALT ([…], time 14 day): 29.4 IU/L
- AST ([…], time 14 day): 57.2 IU/L
- BUN ([…], time 14 day): 19.6 mg/dL
- CRE ([…], time 14 day): 0.6 mg/dL
- Ca ([…], time 14 day): 10.4 mg/dL
- Cl ([…], time 14 day): 107.5 meq/L
- DBIL ([…], time 14 day): 0.002 mg/dL
- GLC ([…], time 14 day): 191.8 mg/dL
- IP ([…], time 14 day): 7.2 mg/dL
- K ([…], time 14 day): 4.8 meq/L
- LDH ([…], time 14 day): 88 IU/L
- Na ([…], time 14 day): 140.3 meq/L
- PL ([…], time 14 day): 168.2 mg/dL
- RALB ([…], time 14 day): 4.1 g/dL
- TBIL ([…], time 14 day): 0.3 mg/dL
- TC ([…], time 14 day): 86 mg/dL
- TG ([…], time 14 day): 139.4 mg/dL
- TP ([…], time 14 day): 6.3 g/dL
- gamma-GTP ([…], time 14 day): 2 IU/L
- A/G ([…], time 28 day): 2
- ALP ([…], time 28 day): 589.8 IU/L
- ALT ([…], time 28 day): 30.6 IU/L
- AST ([…], time 28 day): 57.4 IU/L
- BUN ([…], time 28 day): 20.6 mg/dL
- CRE ([…], time 28 day): 0.5 mg/dL
- Ca ([…], time 28 day): 9.9 mg/dL
- Cl ([…], time 28 day): 107.3 meq/L
- DBIL ([…], time 28 day): 0.008 mg/dL
- GLC ([…], time 28 day): 192 mg/dL
- IP ([…], time 28 day): 6.6 mg/dL
- K ([…], time 28 day): 4.4 meq/L
- LDH ([…], time 28 day): 92.2 IU/L
- Na ([…], time 28 day): 140.6 meq/L
- PL ([…], time 28 day): 154.4 mg/dL
- RALB ([…], time 28 day): 4.2 g/dL
- TBIL ([…], time 28 day): 0.3 mg/dL
- TC ([…], time 28 day): 75.6 mg/dL
- TG ([…], time 28 day): 140 mg/dL
- TP ([…], time 28 day): 6.4 g/dL
- gamma-GTP ([…], time 28 day): 1.8 IU/L
